# Test results reported in patent publication US8835433B2, “Optically pure diastereomers of 10-Propargyl-10-deazaaminopterin and methods of using same for the treatment of cancer” (Allos Therapeutics, Inc., priority 2010, dated 2014).
# Tests used:
# [1] = tested on: SKBR-3 (breast cancer) human tumor cell line; assay: MTS growth inhibition assay, SKBR-3; assay type: cell-based; details: SK-BR-3, SK-BR3 (breast), 3 h treatment, 72 h recovery
# Method: (§1) The agents PDX, PDX-10a, PDX-10b, were evaluated for growth inhibitory activity against, MDA-MB-435, SKBR-3 and NCI-H460 human tumor cell lines. Growth inhibition was measured by MTS assay following three hours of continuous treatment and a seventy-two hour recovery incubation. The purpose of these studies was to determine the cytotoxic activity of the compounds in the tumor cell lines studies studied.
# Materials and Methods. Preparation of PDX-10a and PDX-10b was performed as discussed in Examples 1-2. The PDX compounds were diluted in dimethylsulfoxide (DMSO) at a concentration of 20 mM. From this solution a stock solution of 2 mM was made by dilution with phosphate-buffered saline (PBS). This 2 mM stock solution in 10% DMSO/90% PBS was used to make 2× concentrations of the titration series in cell growth medium which was added to the cell cultures in a 1:1 ratio to make 1× concentrations. Cell lines—The human tumor cell lines: MDA-MB-435 (melanoma), SKBR-3 (breast cancer) and NCI-H460 (lung cancer) were cultured in RPMI medium (RPMI; Nova Tech, Grand Island, N.Y.) containing ten percent dialyzed fetal bovine serum (FBS; Nova Tech). […]
# Single Agent Pulse Studies—Treatment with test agents or standard agents (controls) was initiated 24 hours after plating cells (Day 1). […] Following incubation, the viable cell number was quantified by the MTS assay described below. […]
# MTS Assay—Cell viability was determined using the MTS assay. […] Formazan production was quantified by spectrophotometric measurement at 490 nm and is proportional to viable cell number. […] Absorbance (OD) values were measured using a Dynex HD microplate reader at a single wavelength of 490 nm.
# (§2) Data Analysis—Data from each experiment was collected and expressed as OD490 versus the log10 of the test agent concentration. […]
# [2] = Pharmacokinetics in human (PDX-008, noncompartmental); assay type: in vivo; details: both sexes, human, plasma, intravenous, 30 mg/m^2, human, racemic mixture, males and females (mean)
# Method: (§3) Bioanalytical methods were developed and validated for quantitation of the 2 pralatrexate C10 diastereomers (PDX-10a and PDX-10b) in human, rat and dog plasma and urine. The basic bioanalytical method involves extraction of PDX-10a and PDX-10b from the matrix utilizing C18 solid-phase extraction (SPE) cartridges followed by derivatization (methylation with acetyl chloride) of the diastereomers for separation detection. The derivatized extracts are injected on a chiral high-performance liquid chromatography (HPLC) column for quantitation of each diastereomer by liquid chromatography-tandem mass spectrometry (LC/MS/MS). The lower limit of quantitation (LLOQ) for both diastereomers in plasma and urine matrices was 0.5 ng/mL.
# In humans, PDX-10b clearance was approximately 50% lower for both renal clearance (CLren) and nonrenal clearance (CLnonren). The lower clearance and ˜2-fold lower volume of distribution at steady state (Vdss) of PDX-10b are likely responsible for the 2-fold higher plasma exposure of PDX-10b compared with PDX-10a that is observed in humans. However, the plasma concentration-time profiles for both diastereomers declined in parallel, and terminal elimination half-life (t1/2term) for both diastereomers was virtually identical. The biological cause for the observed stereoselectivity across species is unknown, but may be due to isomeric differences in plasma protein binding. Isomeric differences in tissue distribution and/or renal and hepatobiliary transport may contribute as well.
# [3] = Pharmacokinetics in rat (PDX-T-07034-R); assay type: in vivo; details: both sexes, plasma, 5 mg/kg, racemic mixture, males and females (mean)
# Method: as §3, with “ng/mL. […]” for “ng/mL.”
# [4] = tested on: CWR22-RV1 (prostate) cell lines; assay: MTS growth inhibition assay, CWR22-RV1; assay type: cell-based; details: Homo sapiens, CWR22Rv1, separate experiments
# [5] = tested on: MDA-MB-435 (melanoma) human tumor cell line; assay: MTS growth inhibition assay, MDA-MB-435; assay type: cell-based; details: 3 h treatment, 72 h recovery
# Method: as §1
# (§4) Materials and Methods. Preparation of PDX-10a and PDX-10b was performed as discussed in Examples 1-2. The PDX compounds were diluted in dimethylsulfoxide (DMSO) at a concentration of 20 mM. From this solution a stock solution of 2 mM was made by dilution with phosphate-buffered saline (PBS). This 2 mM stock solution in 10% DMSO/90% PBS was used to make 2× concentrations of the titration series in cell growth medium which was added to the cell cultures in a 1:1 ratio to make 1× concentrations. Cell lines—The human tumor cell lines: MDA-MB-435 (melanoma), SKBR-3 (breast cancer) and NCI-H460 (lung cancer) were cultured in RPMI medium (RPMI; Nova Tech, Grand Island, N.Y.) containing ten percent dialyzed fetal bovine serum (FBS; Nova Tech). Once cells reached seventy percent confluency, they were trypsinized and resuspended in an alternate media (RPMI containing five percent dialyzed FBS (Hyclone, Logan, Utah). One day prior to treatment (Day 0), cultures were suspended at a concentration of 1−7.5×10^4 cell/ml and 100 μl aliquots were plated into each well of a 96-well microtiter plate at a final concentration of 1×10^3-7.5×10^3 cells/well. Cells were incubated for 24 hours at 37° C. prior to exposure with agents.
# (§5) Test Agents—racemic PDX, and individual diastereomers PDX-10a and PDX-10b were prepared as described above. Cells were treated 24 hours after plating (Day 1) with vehicle (media) alone or the above test agents for three hours at concentrations between 3 μM and 10 μM.
# (§6) Single Agent Pulse Studies—Treatment with test agents or standard agents (controls) was initiated 24 hours after plating cells (Day 1). Cells were incubated at 37° C. with each of the test agents or a “chemococktail” (positive control) consisting of 215 μM Etoposide, 20 μM Taxol, 38.5 nM Velcade at final concentration for three hours. Following treatment, drug was removed, growth media added, and cells incubated at 37° C. for 72 hours. Following incubation, the viable cell number was quantified by the MTS assay described below. Experiments were repeated twice at the same concentrations. Results from these studies were used to calculate an IC50 value (concentration of drug that inhibits cell growth by 50% of the vehicle) for each compound. IC50 values were generated with Prizm software.
# (§7) MTS Assay—Cell viability was determined using the MTS assay. This colorimetric procedure measures conversion of the MTS reagent (a tetrazolium salt) to formazan by living cells. Formazan production was quantified by spectrophotometric measurement at 490 nm and is proportional to viable cell number. For these studies, cells were cultured and treated as listed above. At the end of the treatment, 20 μl MTS tetrazolium (1.9 mg/ml in PBS, pH 6.0) was added to the cells for 1 hour at 37° C. Absorbance (OD) values were measured using a Dynex HD microplate reader at a single wavelength of 490 nm.
# as §2
# [6] = Pharmacokinetics in dog (PDX-T-07054-D); assay type: in vivo; details: both sexes, dog, plasma, 0.7 mg/kg, dog, racemic mixture, males and females (mean)
# Method: as §3, with “ng/mL. […]” for “ng/mL.”
# [7] = tested on: NCI-H460 (lung cancer) human tumor cell line; assay: MTS growth inhibition assay, NCI-H460; assay type: cell-based
# Method: as §1, §4, §5, §6, §7
# Data Analysis—Data from each experiment was collected and expressed as OD490 versus the log10 of the test agent concentration. Using the statistical analysis package of the Prizm analytical software (GraphPad, San Diego, Calif.), a non-linear curve fit was performed which yielded the 50% inhibition concentration of the test article (IC50).
# [8] = C1D1, 30 mg/m^2 (0.81 mg/kg), n = 10
# [9] = C1D6 or C2D6, 30 mg/m^2 (0.81 mg/kg), n = 6
smiles,measurement,setting,value
"C#CCC(Cc1cnc2nc(N)nc(N)c2n1)c1ccc(C(=O)N[C@@H](CCC(=O)O)C(=O)O)cc1 (mixture of isomers) [PDX, (2S)-2-[[4-[(1RS)-1-[(2,4-diaminopteridin-6-yl)methyl]but-3-ynyl]benzoyl]amino]pentanedioic acid, reference compound]",IC50,[1],27.1 nM
same,AUC(0-inf),[2]; [8],4460 ng·h/mL
same,Cmax,[2]; [8],5820 ng/mL
same,AUC(0-inf),[2]; [9],3530 ng·h/mL
same,Cmax,[2]; [9],4960 ng/mL
same,AUC(0-inf),"[3]; Day 1, 5 mg/kg (30 mg/m^2)",4870 ng·h/mL
same,Cmax,"[3]; Day 1, 5 mg/kg (30 mg/m^2)",19200 ng/mL
same,AUC(0-inf),"[3]; Day 85, 5 mg/kg (30 mg/m^2)",4500 ng·h/mL
same,Cmax,"[3]; Day 85, 5 mg/kg (30 mg/m^2)",14300 ng/mL
same,IC50,[4],8.3 nM
same,IC50,"[5]; Homo sapiens, MDA-MB-435, MDA-MB-435 (melanoma)",129 nM
same,IC50,[5]; MDA-MB-435 (melanoma),129 nM
same,AUC(0-inf),"[6]; Day 1, 0.7 mg/kg (14 mg/m^2)",1560 ng·h/mL
same,Cmax,"[6]; Day 1, 0.7 mg/kg (14 mg/m^2)",1790 ng/mL
same,AUC(0-inf),"[6]; Day 281, 0.7 mg/kg (14 mg/m^2)",1340 ng·h/mL
same,Cmax,"[6]; Day 281, 0.7 mg/kg (14 mg/m^2)",649 ng/mL
same,IC50,"[7]; Homo sapiens, NCI-H460, NCI-H460 (lung), 3 h treatment, 72 h recovery, MTS",100 nM
same,IC50,"[7]; Homo sapiens, NCI-H460, NCI-H460 repeat assay",124 nM
same,IC50,[7]; NCI-H460 repeat assay,124 nM
